Test results reported in patent US20080261977A1, “Pyrimidine Derivatives as Cannabinoid Receptor Modulators” (priority 2004, published 2008).
Where a name gives a salt, the structure may show the parent alone. Read-outs that look alike come from different tables or passages of the source.

Target: T1, human cannabinoid CB2 receptor (Homo sapiens, UniProt P34972)
T1 construct: expressed in transfected cells; host or cells: Saccharomyces cerevisiae strain MMY23 (cassette integrated at the ura3 locus; chimeric Gpa1/Gαi3)
Experiment: Cannabinoid CB2 receptor agonist activity, yeast (Saccharomyces cerevisiae) cells expressing the receptor, FDGlu fluorescence
Assay type: cell-based
Conditions: for Emax: read-out: efficacy (Emax relative to HU210) at the cloned human cannabinoid CB2 receptor
Method: The cannabinoid CB2 receptor agonist activity of the compounds of formula (I) was determined in accordance with the following experimental method.
Yeast (Saccharomyces cerevisiae) cells expressing the human cannabinoid CB2 receptor were generated by integration of an expression cassette into the ura3 chromosomal locus of yeast strain MMY23. This cassette consisted of DNA sequence encoding the human CB2 receptor flanked by the yeast GPD promoter to the 5′ end of CB2 and a yeast transcriptional terminator sequence to the 3′ end of CB2. MMY23 expresses a yeast/mammalian chimeric G-protein alpha subunit in which the C-terminal 5 amino acids of Gpa1 are replaced with the C-terminal 5 amino acids of human Gαi3 (as described in Brown et al. (2000), Yeast 16:11-22). Cells were grown at 30° C. in liquid Synthetic Complete (SC) yeast media (Guthrie and Fink (1991), Methods in Enzymology, Vol. 194) lacking uracil, tryptophan, adenine and leucine to late logarithmic phase (approximately 6 OD600/ml).
Agonists were prepared as 10 mM stocks in DMSO. EC50 values (the concentration required to produce 50% maximal response) were estimated using dilutions of between 3- and 5-fold (BiomekFX, Beckman) into DMSO. Agonist solutions in DMSO (1% final assay volume) were transferred into black, clear bottom, microtitre plates from NUNC (96- or 384-well). Cells were suspended at a density of 0.2 OD600/ml in SC media lacking histidine, uracil, tryptophan, adenine and leucine and supplemented with 10 mM 3-aminotriazole, 0.1M sodium phosphate pH 7.0, and […] fluorescein di-β-D-glucopyranoside (FDGlu). This mixture (50 ul per well for 384-well plates, 200 ul per well for 96-well plates) was added to agonist in the assay plates (Multidrop 384, Labsystems). After incubation at 30° C. for 24 hours, fluorescence resulting from degradation of FDGlu to fluorescein due to exoglucanase, an endogenous yeast enzyme produced during agonist-stimulated cell growth, was determined using a Spectrofluor microtitre plate reader (Tecan; excitation wavelength: 485 nm; emission wavelength: 535 nm). Fluorescence was plotted against compound concentration and iteratively curve fitted using a four parameter fit to generate a concentration effect value. Efficacy (Emax) was calculated from the equation
Emax=Max[compound X]−Min[compound X]/Max[HU210]−Min[HU210]×100%
where Max[compound X] and Min[compound X] are the fitted maximum and minimum respectively from the concentration effect curve for compound X, and Max[HU210] and Min[HU210] are the fitted maximum and minimum respectively from the concentration effect curve for (6aR,10aR)-3-1,1′-Dimethylheptyl)-6a,7,10,10a-tetrahydro-1-hydroxy-6,6-dimethyl-6H-dibenzo[b,d]pyran-9-methanol (HU210; available from Tocris). Equieffective molar ratio (EMR) values were calculated from the equation
Where EC50[compound X] is the EC50 of compound X and EC50[HU210] is the EC50 of HU210.

[1] = yeast agonist assay, read-out: EC50 at the cloned human cannabinoid CB2 receptor

T1 sequence (P34972 whole entry): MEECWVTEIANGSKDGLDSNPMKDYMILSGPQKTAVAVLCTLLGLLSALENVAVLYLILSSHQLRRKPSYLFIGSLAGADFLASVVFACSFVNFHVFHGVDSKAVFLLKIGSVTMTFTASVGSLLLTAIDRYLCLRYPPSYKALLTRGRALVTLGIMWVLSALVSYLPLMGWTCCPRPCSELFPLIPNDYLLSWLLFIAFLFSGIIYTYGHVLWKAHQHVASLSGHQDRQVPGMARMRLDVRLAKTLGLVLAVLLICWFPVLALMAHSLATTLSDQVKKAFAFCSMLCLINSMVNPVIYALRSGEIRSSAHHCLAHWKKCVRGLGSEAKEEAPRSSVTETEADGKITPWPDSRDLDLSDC

EC50 [1] [nM]	Emax (yeast agonist assay) [%]	SMILES	also measured
< 300	> 50	CC(C)c1nc(Nc2cccc(Cl)c2)ncc1CNC1CCC1 [Example 98, (3-Chloro-phenyl)-{5-[(cyclobutylamino)-methyl]-4-isopropyl-pyrimidin-2-yl}-amine hydrochloride]	–
< 300	> 50	CC(C)CCNCc1cnc(Nc2cccc(Cl)c2)nc1C(F)(F)F [Example 24, (3-Chlorophenyl)-{5-[(3-methylbutylamino)-methyl]-4-trifluoromethyl-pyrimidin-2-yl}-amine,formate]	–
< 300	> 50	CCCCNCc1cnc(Nc2cccc(Cl)c2)nc1C(F)(F)F [Example 22, (3-Chlorophenyl)-(5-butylaminomethyl-4-trifluoromethyl-pyrimidin-2-yl)-amine,formate]	–
< 300	> 50	CC(C)CNC(C)c1cnc(Nc2cccc(F)c2)nc1C(F)(F)F (stereo not shown) [Example 87, (3-Fluorophenyl)-[5-(1-isobutylamino-ethyl)-4-trifluoromethyl-pyrimidin-2-yl]-amine]	–
< 300	> 50	FC(F)(F)c1nc(Nc2cccc(Cl)c2)ncc1CNCC1CCCC1 [Example 10, (3-Chlorophenyl){5-[(cyclopentylmethylamino)-methyl]-4 trifluoromethyl-pyrimidin-2-yl}-amine, formate]	–
< 300	> 50	CC(C)c1nc(Nc2cccc(Cl)c2)ncc1CN1CCOCC1 [Example 6, (3-Chloro-phenyl)-(4-isopropyl-5-morpholin-4-ylmethyl-pyrimidin-2-yl)-amine]	–
< 300	> 50	COCCNCc1cnc(Nc2ccc(Cl)cc2Cl)nc1C(F)(F)F [Example 33, (2,4-Dichlorophenyl)-{5-[(2-methoxy-ethylamino)-methyl]-4-trifluoromethyl-pyrimidin-2-yl}-amine]	–
–	–	FC(F)(F)c1nc(Nc2cccc(Cl)c2)ncc1CNC1CCC1 [Example 21, (3-Chlorophenyl)-(5-cyclobutylaminomethyl-4-trifluoromethyl-pyrimidin-2-yl)-amine]	EC50: < 300 nM; Emax: > 50%
< 300	> 50	CC(C)c1nc(Nc2cccc(Cl)c2)ncc1CNCC1CC1 [Example 7, (3-Chloro-phenyl)-{5-[(cyclopropylmethyl-amino)-methyl]-4-isopropyl-pyrimidin-2-yl}-amine hydrochloride]	–
–	–	COCCN(CCOC)Cc1cnc(Nc2cccc(Cl)c2)nc1C(F)(F)F [Example 83, (5-{[Bis-(2-methoxy-ethyl)-amino]-methyl}-4-trifluoromethyl-pyrimidin-2-yl)-(3-chlorophenyl)-amine]	potency or efficacy at the CB2 receptor (in words): no appreciable potency or efficacy; potency or efficacy at the CB2 receptor (in words) (listed as (5-{[Bis-(2-methoxy-ethyl)-amino]-methyl}-4-trifluoromethyl-pyrimidin-2-yl)-(3-c)): do not appear to have any potency or efficacy
< 300	> 50	FC(F)(F)c1nc(Nc2cccc(Cl)c2)ncc1CNC1CCOCC1 [Example 16, (3-Chlorophenyl)-{5-[(tetrahydro-pyran-4-ylamino)-methyl]-4-trifluoromethyl-pyrimidin-2-yl}-amine, formate]	–
< 300	> 50	CC(C)CNCc1cnc(Nc2cccc(Cl)c2)nc1C(C)(C)C [Example 102, (4-tert-Butyl-5-(isobutylamino-methyl)-pyrimidin-2-yl]-(3-chloro-phenyl)-aminehydrochloride]	–

SMILES	EC50 [1] [nM]	Emax (yeast agonist assay) [%]	also measured
FC(F)(F)c1nc(Nc2ccc(Cl)cc2Cl)ncc1CN1CCCC1 [Example 53, (2,4-Dichlorophenyl)-(5-pyrrolidin-1-ylmethyl-4-trifluoromethyl-pyrimidin-2-yl)-amine]	300 to 1000	–	Emax: > 50%
Fc1cc(CNCc2cnc(Nc3cccc(Cl)c3)nc2C(F)(F)F)ccn1 [Example 96, (3-Chlorophenyl)-(5-{[(2-fluoropyridin-4-ylmethyl)amino]-methyl}-4-trifluoromethyl-pyrimidin-2yl}-amine, formate]	300 to 1000	–	Emax: > 50%
